Drawing on PubChem BioAssay (NCI), this text covers TGI for 35 molecules.

What all share (assay): NCI-60 cell line screen, 48 h
The subject of experiment [1] is NCI-H23 lung.
Experiment [2] concerns TK-10 renal.
The test system of experiment [3] is OVCAR-8 ovarian.
In experiment [4] the test system is KM20L2 colon.
Experiment [5] has as its system M19-MEL melanoma.
For experiment [6], the system named is DLD-1 colon.
Experiment [7] concerns COLO 205 colon.
Experiment [8] concerns SNB-78 CNS.
The test system of experiment [9] is SK-MEL-2 melanoma.
Experiment [10] deals with DMS 114 small cell lung.
In experiment [11] the test system is LXFL 529 NSCLC.
The test system of experiment [12] is HCT-15 colon.
Experiment [13] deals with DMS 273 small cell lung.
Experiment [14] has as its system XF 498 CNS.

Where “and” joins values, the source holds several entries; their conditions need not be identical. Identical values can stand only once.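 Tested at 5 concentrations; 48 h exposure; 96-well plates; endpoints linearly interpolated, else capped at highest concentration. TGI: concentration producing complete growth inhibition.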

`COC1C=COC2(C)Oc3c(C)c(O)c4c(O)c(c(/C=N/N5CCN(N)CC5)c(O)c4c3C2=O)NC(=O)C(C)=CC=CC(C)C(O)C(C)C(O)C(C)C(OC(C)=O)C1C` (centres undefined): the TGI in experiment [1], in experiment [2], in experiment [3], in experiment [4], in [5] and in [6] was over 100 µM in each case. For the same molecule, the TGI in experiment [7], in experiment [8], in experiment [9], in experiment [10], in experiment [11] and in [12] was over 100 µM throughout. In addition, the TGI in experiment [13] was over 100 µM.

For `O=C(O)CCc1ccc2c(c1)C(=O)CC2`, the TGI in [1], in [2], in experiment [3], in experiment [7], in experiment [9] and in experiment [12] was over 100 µM each time.

Take `Clc1cc(Cl)cc(C2ON=C(c3ccccc3)N2C23CC4CC(CC(C4)C2)C3)c1` (centres undefined): the TGI in [1], in experiment [2], in experiment [3], in [7], in [9] and in experiment [12] was over 10 µM throughout.

Turning to `CCN(CC)CCNC(=O)c1cc2cc(NC(=O)c3cc4cc(NC(=O)c5cc6cc(N)ccc6[nH]5)ccc4[nH]3)ccc2[nH]1`, the TGI in experiment [1], in experiment [2], in experiment [3], in experiment [7], in [9] and in [12] was over 100 µM each time.

Turning to `CCC[C@H](NS(=O)c1ccc(C)cc1)C(C(=O)OCC)=C(c1ccccc1)c1ccccc1` (some centres undefined), the TGI is 96 µM in [1]; 97 µM in [2]; 97.4 µM in [3]; 46.1 µM in [7]; 31.7 µM in [9]; over 100 µM in [12].

As to `Cc1nc2c(=O)n(-c3ccccc3)c3ccccc3c2o1`, the TGI in experiment [1], in [2], in [3], in experiment [7], in [9] and in experiment [12] was over 100 µM throughout.

For the molecule `c1cc2c(c(NC3=NCCO3)c1)CCC2`, the TGI in experiment [1], in experiment [2], in [3], in [7], in [9] and in experiment [12] was over 100 µM in each case.

Consider `COC1=CCC=C(C[C@@H]2NCCc3cc(OC)c(OC)cc32)C1`, for which the TGI in experiment [14], in experiment [1], in experiment [2], in experiment [3], in experiment [4] and in experiment [5] was over 100 µM throughout. The TGI in experiment [6], in [7], in experiment [8], in [9], in [11] and in experiment [12] was over 100 µM in each case. The same molecule had a TGI in [13] of over 100 µM.

On to `CC(C)(C)Nc1noc(=O)n1C(C)(C)C`, for which the TGI in experiment [1], in experiment [2], in [3], in [7], in experiment [9] and in experiment [12] was over 100 µM throughout.

Regarding `O=c1[nH]nc(Cc2ccccc2)n1/N=C\c1ccccc1`, the TGI in experiment [1], in experiment [2], in [3], in experiment [7], in experiment [9] and in experiment [12] was over 100 µM in each case.

`CC(=O)NC(c1nc2cc(C)c(C)cc2[nH]1)c1nc2cc(C)c(C)cc2[nH]1`: the TGI was over 100 µM in experiment [1]; 89.1 µM in experiment [2]; 47.5 µM in experiment [3]; 43.4 µM in experiment [7]; over 100 µM in experiment [9]; 60 µM in experiment [12].

Regarding `COC(=O)[C@@H]1CN(C(C)=O)C(=O)N1C(=O)OCc1ccccc1`, the TGI in experiment [1], in experiment [2], in experiment [3], in [7], in experiment [9] and in experiment [12] was over 100 µM each time.

On to `COc1ccc(/C(O)=C/c2nc3cccnc3nc2/C=C(\O)c2ccc(OC)cc2)cc1`, for which the TGI was 30.7 µM in [1]; 37.7 µM in [2]; 35.6 µM in [3]; over 100 µM in [7]; 91.7 µM in experiment [9]; over 100 µM in experiment [12].

For the molecule `COC(=O)C1OC(O[C@H]2CC[C@]3(C)[C@H]4CC=C5[C@@H]6CC(C)(C)CC[C@]6(C(=O)OC6OCC(O)C(O)C6OC6OC(C)C(OC7OCC(O)C(OC8OCC(O)C(O)C8O)C7O)C(OC7OCC(O)C(O)C7O)C6O)CC[C@@]5(C)[C@]4(C)CC[C@H]3C2(C)C)C(O)C(OC2OCC(O)C(O)C2O)C1O` (some centres undefined), the TGI was > 36.7 µM and 16.2 µM in experiment [1]; 70.4 µM and 24.4 µM in experiment [2]; > 100 µM and 23.3 µM in experiment [3]; 2.97 µM and 3.08 µM in experiment [7]; 9.16 µM and 7.73 µM in experiment [9]; > 100 µM and 35.2 µM in experiment [12].

Regarding `CNC(=O)N(CCC#N)CCCN(C(=O)NC)c1ccccc1`, the TGI in [1], in [2], in [3], in experiment [7], in [9] and in [12] was over 100 µM each time.

As for `c1ccc([P+](Cc2ccccc2C[P+](c2ccccc2)(c2ccccc2)c2ccccc2)(c2ccccc2)c2ccccc2)cc1`, the TGI in experiment [1], in [2], in experiment [3], in [7], in experiment [9] and in experiment [12] was over 100 µM in each case.

Turning to `c1ccc(-n2nc3ccc4nonc4c3n2)cc1`, the TGI in [1], in experiment [2], in experiment [3], in experiment [7], in experiment [9] and in experiment [12] was over 100 µM each time.

Take `CC(SC(=S)N1CCOCC1)C(=O)Nc1nnc(-c2ccccc2)o1` (centres undefined): the TGI in experiment [1], in experiment [2], in [3], in experiment [7], in experiment [9] and in experiment [12] was over 100 µM in each case.

Take `COc1cc2cccc(N)c2cc1OC`: the TGI in [1] was over 100 µM; in [2], over 72 µM; in experiment [3], over 100 µM; in experiment [7], over 100 µM; in [9], over 100 µM; in experiment [12], over 100 µM.

Take `C=C(C)[C@H]1C=C[C@@H](OC(=O)c2cccnc2)[C@@]23CO[C@@](C)([C@H](OC(=O)c4cccnc4)[C@@]4(OC(C)=O)C[C@H](C)[C@H](OCCC)[C@@H]4[C@H]2OC(C)=O)[C@H]13`: the TGI in experiment [1], in [2], in [3], in [7], in [9] and in experiment [12] was over 15 µM in each case.

`Cc1ccc(Nc2c(C#N)[n+]([O-])c3cc(Cl)ccc3[n+]2[O-])cc1`: the TGI in [1], in [2], in experiment [3], in experiment [7], in experiment [9] and in experiment [12] was over 100 µM each time.

For `NCCN1C(=O)CN=C(c2ccc(Cl)cc2)c2cc(Cl)ccc21`, the TGI in experiment [1] worked out at 37.1 µM; in [2] it was 30.5 µM; in experiment [3] it was 32.2 µM; in experiment [7] it was 38.7 µM; in experiment [9] it was 31.8 µM; in experiment [12], 34.7 µM.

On to `COc1ccc(OCc2ccc3nc(-c4ccccc4)c(Cl)nc3c2)cc1`, for which the TGI in experiment [1] was 67.9 µM; in [2] it was 55.3 µM; in [3] it was over 100 µM; in [7], 81.5 µM; in experiment [9] it was over 100 µM; in experiment [12], over 100 µM.

As for `[O-][n+]1ccccc1S`, the TGI in experiment [1] was over 100 µM; in experiment [2], 4.71 µM; in experiment [3] it was over 100 µM; in [7] it was 1.7 µM; in experiment [9], 9.13 µM; in experiment [12], over 100 µM.

With `C=CCSC1=N/C(=C\c2cccs2)C(=O)N1CC=C`, the TGI in [1], in experiment [2], in experiment [3], in experiment [7], in [9] and in [12] was over 100 µM in each case.

As to `CCN1C(=O)C(C)S/C1=N\NC(=O)CSc1nc2ccccc2c(=O)n1CC` (centres undefined), the TGI in experiment [1], in experiment [2], in [3], in experiment [7], in [9] and in experiment [12] was over 100 µM throughout.

As to `Cc1ccc(-c2cc(C(F)(F)F)nn2-c2ccc(S(N)(=O)=O)cc2)cc1`, the TGI was 37.7 µM in experiment [1]; over 59.2 µM in experiment [2]; over 62.8 µM in experiment [3]; 50.8 µM in experiment [7]; 43.5 µM in experiment [9]; over 56.6 µM in experiment [12].

As for `COC(=O)/C=C1/CCC(C)(C(=O)NS(=O)(=O)c2ccc(C)cc2)C1(C)C` (centres undefined), the TGI in experiment [1], in experiment [2], in experiment [3], in experiment [7], in [9] and in experiment [12] was over 100 µM each time.

For `CCOC(=O)[C@@]12C3C=CC(CC3)[C@]1(C(=O)c1ccccc1)C(=O)C(=O)N2c1ccccc1` (some centres undefined), the TGI in experiment [1], in [2], in [3], in experiment [7], in experiment [9] and in [12] was over 100 µM in each case.

For the molecule `CC(=O)Oc1ccccc1/C=C/C(=O)/C=C/c1ccccc1OC(C)=O`, the TGI in experiment [1] is 4.61 µM; in experiment [2], 10.6 µM; in [3], 5.12 µM; in [7], 4.06 µM; in experiment [9] it was 21.1 µM; in [12] it was 9.34 µM.

`O=P1(Oc2ccccc2)N(CCCl)CCN1c1ccccc1` (centres undefined): the TGI in experiment [1], in experiment [2], in [3], in [7], in experiment [9] and in experiment [12] was over 100 µM in each case.

As to `C=C[C@@H]1C[C@]2(C(=O)OC)Cc3nc4ccccc4nc3CC(C(=O)OC)=C2O1`, the TGI in experiment [1], in experiment [2], in [3], in [7], in [9] and in experiment [12] was over 100 µM throughout.

For `Nc1ccn(C2CCC(CO)O2)c(=S)n1` (centres undefined), the TGI in experiment [1], in experiment [2], in experiment [3], in experiment [7], in experiment [9] and in experiment [12] was over 100 µM each time.

`O=C(Nc1ccccc1)N(C1=NCC(CI)S1)c1ccc(F)cc1F` (centres undefined): the TGI in experiment [1], in [2], in [3], in experiment [7], in [9] and in experiment [12] was over 100 µM each time.

On to `CCCCCCOc1ccc(C(=O)NO)cc1`, for which the TGI in experiment [1] was 23 µM; in [2], over 100 µM; in experiment [3], 31.6 µM; in [7], 26 µM; in [9] it was 39 µM; in experiment [12] it was 16.1 µM.
